Measured values reported in ChEMBL document CHEMBL3885861, “Open TG-GATES”.

Species: Rattus norvegicus
Experiment: Open TG-GATES - Regimen: Daily Repeat
Format: toxicity, organism-based, Sprague-Dawley
Design: regimen Daily Repeat, gender Male, age 6 weeks
Conditions: in vivo, po, route gavage; for ALT / AST / BUN / CRE / Ca / Cl / DBIL / GLC / IP / K / LDH / Na / PL / RALB / TBIL / TC / TG / TP / gamma-GTP / A/G / ALP: tissue Plasma; for APTT / Bas / Eos / Fbg / Hb / Ht / Lym / MCH / MCHC / MCV / Mono / Neu / PT / Plat / RBC / Ret / WBC: tissue Blood; for KIDNEY_L / KIDNEY_R / KIDNEY_TOTAL: tissue Kidney; for LIVER: tissue Liver
[1] = 30 mg/kg, […], dose level Low, time 14 day
[2] = 30 mg/kg, […], dose level Low, time 28 day
[3] = 100 mg/kg, 72 h, dose level Middle, time 3 day
[4] = 100 mg/kg, […], dose level Middle, time 7 day
[5] = 100 mg/kg, […], dose level Middle, time 14 day
[6] = 100 mg/kg, […], dose level Middle, time 28 day

`CCc1cc(C(N)=S)ccn1` [ETHIONAMIDE] showed an ALT [1] of 34.8 IU/L, an AST [1] of 62.4 IU/L and a BUN [1] of 17.6 mg/dL. It also gave a CRE [1] of 0.5 mg/dL, a Ca [1] of 10.8 mg/dL and a Cl [1] of 104.4 meq/L. The DBIL [1] was 0.026 mg/dL, the GLC [1] was 206.6 mg/dL and the IP [1] was 7.2 mg/dL. For the same compound, the K [1] was 4.4 meq/L, the LDH [1] was 95.4 IU/L and the Na [1] was 142.2 meq/L. For the same compound, the PL [1] was 152.2 mg/dL, the RALB [1] was 4.1 g/dL and the TBIL [1] was 0.3 mg/dL. The TC [1] was 70.4 mg/dL, the TG [1] was 107.6 mg/dL and the TP [1] was 5.9 g/dL. It also gave a gamma-GTP [1] of 1.8 IU/L, an A/G [2] of 2.2 and an ALP [2] of 680.6 IU/L. For the same compound, the ALT [2] was 35.8 IU/L, the AST [2] was 60 IU/L and the BUN [2] was 21.2 mg/dL. The CRE [2] was 0.7 mg/dL, the Ca [2] was 10.1 mg/dL and the Cl [2] was 106 meq/L. It also gave a DBIL [2] of 0.022 mg/dL, a GLC [2] of 198.8 mg/dL and an IP [2] of 6.3 mg/dL. For the same compound, the K [2] was 4.6 meq/L, the LDH [2] was 95.2 IU/L and the Na [2] was 140.4 meq/L. For the same compound, the PL [2] was 143.8 mg/dL, the RALB [2] was 4.1 g/dL and the TBIL [2] was 0.3 mg/dL. It also gave a TC [2] of 71.4 mg/dL, a TG [2] of 129 mg/dL and a TP [2] of 6 g/dL. The gamma-GTP [2] was 1.6 IU/L, the TERMINAL_BW [3] was 233.1 g and the APTT [3] was 17.5 s. It also gave a Bas [3] of 0%, an Eos [3] of 1% and a Fbg [3] of 209 mg/dL. The Hb [3] was 14.5 g/dL, the Ht [3] was 42.6% and the Lym [3] was 67%. For the same compound, the MCH [3] was 21.7 pg, the MCHC [3] was 33.9% and the MCV [3] was 64 fL. The Mono [3] was 10.8%, the Neu [3] was 21.6% and the PT [3] was 11.6 s. The Plat [3] was 130 x10_4/uL, the RBC [3] was 666.2 x10_4/ul and the Ret [3] was 10.3%. It also gave a WBC [3] of 119.1 x10_2/uL, a KIDNEY_L [3] of 1.1 g and a KIDNEY_R [3] of 1.1 g. The KIDNEY_TOTAL [3] was 2.2 g, the LIVER [3] was 12.4 g and the A/G [3] was 2. For the same compound, the ALP [3] was 951.2 IU/L, the ALT [3] was 41.6 IU/L and the AST [3] was 65.6 IU/L. For the same compound, the BUN [3] was 17.4 mg/dL, the CRE [3] was 0.5 mg/dL and the Ca [3] was 10.5 mg/dL. It also gave a Cl [3] of 104.2 meq/L, a DBIL [3] of 0.032 mg/dL and a GLC [3] of 197.6 mg/dL. The IP [3] was 7.1 mg/dL, the K [3] was 4.7 meq/L and the LDH [3] was 94.2 IU/L. The Na [3] was 140.8 meq/L, the PL [3] was 125 mg/dL and the RALB [3] was 3.6 g/dL. The TBIL [3] was 0.2 mg/dL, the TC [3] was 65.4 mg/dL and the TG [3] was 59.2 mg/dL. It also gave a TP [3] of 5.4 g/dL, a gamma-GTP [3] of 1 IU/L and a TERMINAL_BW [4] of 267.6 g. It also gave a TERMINAL_BW [5] of 316.7 g, a TERMINAL_BW [6] of 405.2 g and an APTT [4] of 17 s. The Bas [4] was 0%, the Eos [4] was 1% and the Fbg [4] was 212 mg/dL. It also gave a Hb [4] of 14.2 g/dL, a Ht [4] of 42.3% and a Lym [4] of 68.6%. The MCH [4] was 20.9 pg, the MCHC [4] was 33.7% and the MCV [4] was 62.1 fL. The Mono [4] was 8.6%, the Neu [4] was 21.6% and the PT [4] was 11.7 s. The Plat [4] was 148.8 x10_4/uL, the RBC [4] was 681.8 x10_4/ul and the Ret [4] was 3.6%. For the same compound, the WBC [4] was 136.5 x10_2/uL, the APTT [5] was 17.7 s and the Bas [5] was 0%. For the same compound, the Eos [5] was 1.4%, the Fbg [5] was 221 mg/dL and the Hb [5] was 15.2 g/dL. For the same compound, the Ht [5] was 44.6%, the Lym [5] was 63.8% and the MCH [5] was 21.4 pg. For the same compound, the MCHC [5] was 34.2%, the MCV [5] was 62.6 fL and the Mono [5] was 4.4%. The Neu [5] was 30.4%, the PT [5] was 11.8 s and the Plat [5] was 131.1 x10_4/uL. It also gave an RBC [5] of 712 x10_4/ul, a Ret [5] of 4.9% and a WBC [5] of 203.6 x10_2/uL. For the same compound, the APTT [6] was 16.9 s, the Bas [6] was 0% and the Eos [6] was 1.6%. It also gave a Fbg [6] of 228.4 mg/dL, a Hb [6] of 15.9 g/dL and a Ht [6] of 46.2%. For the same compound, the Lym [6] was 72.4%, the MCH [6] was 20.4 pg and the MCHC [6] was 34.4%. For the same compound, the MCV [6] was 59.3 fL, the Mono [6] was 4.8% and the Neu [6] was 21.2%. It also gave a PT [6] of 11.7 s, a Plat [6] of 140.7 x10_4/uL and an RBC [6] of 780.4 x10_4/ul. For the same compound, the Ret [6] was 7.8%, the WBC [6] was 170.4 x10_2/uL and the KIDNEY_L [4] was 1.1 g. For the same compound, the KIDNEY_R [4] was 1.2 g, the KIDNEY_TOTAL [4] was 2.4 g and the KIDNEY_L [5] was 1.4 g. It also gave a KIDNEY_R [5] of 1.4 g, a KIDNEY_TOTAL [5] of 2.8 g and a KIDNEY_L [6] of 1.6 g. For the same compound, the KIDNEY_R [6] was 1.6 g, the KIDNEY_TOTAL [6] was 3.2 g and the LIVER [4] was 13.1 g. For the same compound, the LIVER [5] was 16 g, the LIVER [6] was 18.7 g and the A/G [4] was 1.8. It also gave an ALP [4] of 899 IU/L and an ALT [4] of 40.8 IU/L.
